Results published in patent US20220233534A1, “CERDULATINIB-CONTAINING TOPICAL SKIN PHARMACEUTICAL COMPOSITIONS AND USES THEREOF” (DERMAVANT SCIENCES GMBH, priority 2019, published 2022).

Key:
[1] = tested on: DNCB-induced atopic dermatitis NC/Nga mouse; test: DNCB-induced atopic dermatitis in the NC/Nga mouse model; assay type: in vivo
Experimental: Atopic dermatitis was induced by repeated application of DNCB (1-chloro-2,4-dinitrobenzene) to the dorsal skin of the ears/back. […] Lesions were evaluated on days 2, 8, 11, and 14.
Macroscopic lesion severity scores are depicted in FIG. 7. Macroscopic skin lesion severity was measured on the indicated Study Days by assessing (0-3 scale) the presence of erythema, edema, excoriation/erosion, and dryness scaling on the ears, neck, and dorsal skin of animals.
Serum IgE levels are depicted in FIG. 8. Serum samples obtained on Study Day 15 were utilized for IgE quantitation. Select cytokine data from the study are depicted in FIG. 9. Skin samples harvested on Day 15 were analyzed by LUMINEX for inflammatory cytokine levels for IL-4, IL-5, IL-13, and IL-31.

vitiligo mouse model = test: Study DMVT-502-9025 mouse model of vitiligo; assay type: in vivo
Experimental: The model mimics human vitiligo by inducing epidermal depigmentation with autoreactive CD8+ T-cell accumulation. A schematic of the model is depicted in FIG. 15.
Ten mice were used in the study: three REX3 reporter mice for cytokines CXCL9 and CXCL10 and seven SCF (stem cell factor) mice. The vitiligo study timeline is depicted in FIG. 16. The following assessments were performed during the study:
Blinded scoring of ears, tail, nose, and ventral feet (0-5 scale)
Epidermal, dermal, spleen, and lymph node PMEL (premelanosome protein) cell count
Epidermal/dermal APC (antigen-presenting cell) count
Keratinocyte Cytokine Expression

[2] = 60 mg/kg once daily oral, 5 weeks
[3] = 30 and 60 mg/kg once daily oral, 5 weeks

## CCS(=O)(=O)N1CCN(c2ccc(Nc3ncc(C(N)=O)c(NC4CC4)n3)cc2)CC1 [DMVT-502, Cerdulatinib]
[1]; topical therapy, Study Day 15
  serum IgE levels: trends towards reduction
[1]; topical treatment, Day 15, LUMINEX
  pro-inflammatory cytokine levels in skin (IL-4, IL-5, IL-13, IL-31): limited suppression
Vitiligo mouse model; [2]
  APCs in the dermal skin compartment and Langerhans cells in the epidermal skin compartment compared with vehicle: significantly reduced
  CD3+, CD8− T-cell counts in the spleen: significantly reduced
  PMEL T-cell counts in dermis and blood: significantly reduced
  host T-cell counts in blood: significantly decreased
Vitiligo mouse model; [3]
  APC counts in lymph nodes and the spleen compared with vehicle: significantly reduced
  PMEL T-cell counts in the epidermis and dermis compared with vehicle: significantly reduced
  host-derived total T-cell counts in the spleen: significantly reduced
  vitiligo scores compared with vehicle controls: significantly decreased
Vitiligo mouse model; 30 or 60 mg/kg once daily oral, 5 weeks
  lymph node or spleen PMEL T cells: no significant differences
Vitiligo mouse model; SCF/REX3 mice
  CXCL9, CXCL10, and dual expression in keratinocytes compared with vehicle: trends towards reduced
Vitiligo mouse model; once daily oral, 5 weeks
  CXCL9 and CXCL10 expression in lymph node APCs: Reduced
  total keratinocyte counts between treatment groups: No decrease
